Source: paper PMC5762315, “Inhibition of polo-like kinase 4 (PLK4): a new therapeutic option for rhabdoid tumors and pediatric medulloblastoma” (Oncotarget, 2017)
Several values for one entry are separate records, joined by “and”; a condition that tells them apart may be missing. Equal entries are not always repeated.

Assays:
Experiment in all cases: LanthaScreen Eu Kinase Binding Assay, panel of 486 biochemical kinase assays
various kinases [1] = molecular target: various kinases (Homo sapiens, UniProt Q16513); conditions: kinase PKN2 (PRK2); LanthaScreen Binding
various kinases [2] = molecular target: various kinases (Homo sapiens, UniProt P36894); conditions: BMPR1A (ALK3)
various kinases [3] = molecular target: various kinases (Homo sapiens, UniProt Q9UPZ9); conditions: ICK
various kinases [4] = molecular target: various kinases (Homo sapiens, UniProt P22607, K650M); conditions: FGFR3 K650M
various kinases [5] = molecular target: various kinases (Homo sapiens, UniProt Q9HAZ1); conditions: CLK4
various kinases [6] = molecular target: T1, various kinases (Homo sapiens, UniProt P33981); conditions: kinase TTK; LanthaScreen Binding
T1 sequence (P33981 1-857): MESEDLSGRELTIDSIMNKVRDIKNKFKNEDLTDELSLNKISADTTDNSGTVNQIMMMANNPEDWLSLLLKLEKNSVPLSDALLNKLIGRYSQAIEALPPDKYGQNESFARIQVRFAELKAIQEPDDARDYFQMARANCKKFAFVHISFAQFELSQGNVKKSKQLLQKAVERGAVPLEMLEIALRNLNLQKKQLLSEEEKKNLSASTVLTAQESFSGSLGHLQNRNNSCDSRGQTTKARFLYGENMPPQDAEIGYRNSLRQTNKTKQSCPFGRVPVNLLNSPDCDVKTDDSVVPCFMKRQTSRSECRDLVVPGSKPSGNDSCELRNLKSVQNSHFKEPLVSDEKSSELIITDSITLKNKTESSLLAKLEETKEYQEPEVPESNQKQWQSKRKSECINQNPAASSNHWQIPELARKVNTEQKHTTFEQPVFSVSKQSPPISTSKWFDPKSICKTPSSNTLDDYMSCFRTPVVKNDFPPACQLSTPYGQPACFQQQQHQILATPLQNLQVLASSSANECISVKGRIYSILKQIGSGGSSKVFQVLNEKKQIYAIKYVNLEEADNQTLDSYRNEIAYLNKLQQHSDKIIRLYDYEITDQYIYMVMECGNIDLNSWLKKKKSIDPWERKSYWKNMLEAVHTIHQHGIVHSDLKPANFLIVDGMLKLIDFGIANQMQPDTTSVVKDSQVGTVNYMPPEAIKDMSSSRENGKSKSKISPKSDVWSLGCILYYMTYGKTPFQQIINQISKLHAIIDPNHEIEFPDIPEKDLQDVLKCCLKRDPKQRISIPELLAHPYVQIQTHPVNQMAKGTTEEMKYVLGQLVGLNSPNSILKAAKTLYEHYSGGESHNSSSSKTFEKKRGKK

various kinases [7] = molecular target: various kinases (Homo sapiens, UniProt Q14004); conditions: CDK13/cyclin K
various kinases [8] = molecular target: various kinases (Homo sapiens, UniProt P54646)
various kinases [9] = molecular target: various kinases (Homo sapiens, UniProt P50750)
various kinases [10] = molecular target: various kinases (Homo sapiens, UniProt Q92630); conditions: DYRK2
various kinases [11] = molecular target: T2, various kinases (Homo sapiens, UniProt Q8IYT8); conditions: kinase ULK2; LanthaScreen Binding
T2 sequence (Q8IYT8 1-1036): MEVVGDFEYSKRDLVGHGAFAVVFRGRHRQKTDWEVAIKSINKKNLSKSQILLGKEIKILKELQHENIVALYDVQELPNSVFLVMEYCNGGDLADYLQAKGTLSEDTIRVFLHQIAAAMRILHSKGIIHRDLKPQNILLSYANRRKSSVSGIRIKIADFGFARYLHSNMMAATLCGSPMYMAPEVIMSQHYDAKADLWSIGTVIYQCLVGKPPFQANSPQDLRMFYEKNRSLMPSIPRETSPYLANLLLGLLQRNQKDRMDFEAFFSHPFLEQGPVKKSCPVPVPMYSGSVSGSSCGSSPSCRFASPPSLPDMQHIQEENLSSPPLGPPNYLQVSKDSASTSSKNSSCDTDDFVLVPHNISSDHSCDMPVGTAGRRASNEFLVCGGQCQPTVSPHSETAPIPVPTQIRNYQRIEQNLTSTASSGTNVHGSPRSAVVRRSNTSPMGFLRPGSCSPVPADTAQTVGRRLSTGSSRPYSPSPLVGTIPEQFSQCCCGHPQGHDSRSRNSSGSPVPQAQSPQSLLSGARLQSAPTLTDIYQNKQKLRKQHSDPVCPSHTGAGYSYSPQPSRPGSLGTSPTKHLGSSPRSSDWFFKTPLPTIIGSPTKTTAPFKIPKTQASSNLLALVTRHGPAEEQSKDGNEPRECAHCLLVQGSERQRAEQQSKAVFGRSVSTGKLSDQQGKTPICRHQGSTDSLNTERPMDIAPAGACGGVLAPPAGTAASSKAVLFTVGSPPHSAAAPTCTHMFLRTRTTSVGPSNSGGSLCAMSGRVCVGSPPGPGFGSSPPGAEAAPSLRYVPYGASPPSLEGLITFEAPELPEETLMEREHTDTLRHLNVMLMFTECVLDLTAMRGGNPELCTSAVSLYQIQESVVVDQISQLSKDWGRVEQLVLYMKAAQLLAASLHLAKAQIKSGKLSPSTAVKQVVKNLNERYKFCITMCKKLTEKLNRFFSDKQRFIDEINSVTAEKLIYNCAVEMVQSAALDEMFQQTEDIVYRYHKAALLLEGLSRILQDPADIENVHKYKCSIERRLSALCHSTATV

various kinases [12] = molecular target: various kinases (Homo sapiens, UniProt Q2M2I8); conditions: AAK1
various kinases [13] = molecular target: various kinases (Homo sapiens, UniProt Q8NEV4); conditions: MYO3A (MYO3 alpha)
various kinases [14] = molecular target: various kinases (Homo sapiens, UniProt P15056, V600E); conditions: BRAF V599E
various kinases [15] = molecular target: various kinases (Homo sapiens, UniProt P45983); conditions: MAPK8 (JNK1)
various kinases [16] = molecular target: various kinases (Homo sapiens, UniProt Q8NI60); conditions: ADCK3

Sequence of various kinases (Homo sapiens, UniProt P54646) (P54646 whole entry): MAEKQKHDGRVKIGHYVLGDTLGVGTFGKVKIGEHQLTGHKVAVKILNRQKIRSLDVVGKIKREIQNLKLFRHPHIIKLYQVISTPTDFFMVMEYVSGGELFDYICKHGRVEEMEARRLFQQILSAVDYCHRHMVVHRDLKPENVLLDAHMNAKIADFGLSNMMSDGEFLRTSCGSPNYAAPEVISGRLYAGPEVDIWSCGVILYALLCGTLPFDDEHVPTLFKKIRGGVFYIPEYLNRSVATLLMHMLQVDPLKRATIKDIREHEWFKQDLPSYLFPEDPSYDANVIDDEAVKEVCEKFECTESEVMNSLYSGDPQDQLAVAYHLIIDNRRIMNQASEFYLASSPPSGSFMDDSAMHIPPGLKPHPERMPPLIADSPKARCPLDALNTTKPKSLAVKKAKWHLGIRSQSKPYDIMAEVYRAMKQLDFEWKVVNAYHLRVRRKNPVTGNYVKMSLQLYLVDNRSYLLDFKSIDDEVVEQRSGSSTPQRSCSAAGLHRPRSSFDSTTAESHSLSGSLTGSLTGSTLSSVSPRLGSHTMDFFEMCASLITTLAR
Sequence of various kinases (Homo sapiens, UniProt Q16513) (Q16513 whole entry): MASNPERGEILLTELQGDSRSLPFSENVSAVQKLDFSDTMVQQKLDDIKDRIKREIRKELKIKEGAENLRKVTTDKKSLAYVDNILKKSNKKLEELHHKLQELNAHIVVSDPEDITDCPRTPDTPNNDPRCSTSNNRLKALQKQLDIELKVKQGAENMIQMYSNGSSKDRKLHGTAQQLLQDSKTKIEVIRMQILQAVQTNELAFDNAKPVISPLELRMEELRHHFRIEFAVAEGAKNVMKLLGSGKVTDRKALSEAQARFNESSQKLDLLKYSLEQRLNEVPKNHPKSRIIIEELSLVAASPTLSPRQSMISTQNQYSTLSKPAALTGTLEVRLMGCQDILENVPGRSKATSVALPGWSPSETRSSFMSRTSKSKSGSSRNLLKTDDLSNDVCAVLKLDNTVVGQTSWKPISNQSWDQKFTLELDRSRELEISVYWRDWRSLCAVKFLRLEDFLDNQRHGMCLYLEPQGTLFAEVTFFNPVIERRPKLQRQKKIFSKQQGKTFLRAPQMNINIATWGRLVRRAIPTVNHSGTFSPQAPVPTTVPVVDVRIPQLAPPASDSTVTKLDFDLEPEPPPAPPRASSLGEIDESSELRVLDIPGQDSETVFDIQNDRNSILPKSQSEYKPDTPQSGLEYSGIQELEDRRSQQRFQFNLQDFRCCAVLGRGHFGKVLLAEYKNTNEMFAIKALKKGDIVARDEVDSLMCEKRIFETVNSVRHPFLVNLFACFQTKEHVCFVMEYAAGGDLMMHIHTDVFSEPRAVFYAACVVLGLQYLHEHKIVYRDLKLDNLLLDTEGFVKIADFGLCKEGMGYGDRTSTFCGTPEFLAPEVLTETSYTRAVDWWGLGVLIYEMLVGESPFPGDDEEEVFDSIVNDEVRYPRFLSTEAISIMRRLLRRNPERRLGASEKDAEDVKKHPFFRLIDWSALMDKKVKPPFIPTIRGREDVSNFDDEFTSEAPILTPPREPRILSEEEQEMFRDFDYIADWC
Sequence of various kinases (Homo sapiens, UniProt P50750) (P50750 whole entry): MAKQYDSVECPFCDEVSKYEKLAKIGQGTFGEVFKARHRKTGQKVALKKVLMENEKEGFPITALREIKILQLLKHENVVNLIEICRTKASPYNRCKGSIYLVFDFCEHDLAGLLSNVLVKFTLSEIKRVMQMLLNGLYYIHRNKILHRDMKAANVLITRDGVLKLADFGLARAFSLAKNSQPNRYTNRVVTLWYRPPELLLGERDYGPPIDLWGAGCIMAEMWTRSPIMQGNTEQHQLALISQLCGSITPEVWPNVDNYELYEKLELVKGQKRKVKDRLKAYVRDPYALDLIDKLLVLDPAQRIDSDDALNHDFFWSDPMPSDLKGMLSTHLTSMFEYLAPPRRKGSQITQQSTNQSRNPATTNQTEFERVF
Sequence of various kinases (Homo sapiens, UniProt Q9UPZ9) (Q9UPZ9 whole entry): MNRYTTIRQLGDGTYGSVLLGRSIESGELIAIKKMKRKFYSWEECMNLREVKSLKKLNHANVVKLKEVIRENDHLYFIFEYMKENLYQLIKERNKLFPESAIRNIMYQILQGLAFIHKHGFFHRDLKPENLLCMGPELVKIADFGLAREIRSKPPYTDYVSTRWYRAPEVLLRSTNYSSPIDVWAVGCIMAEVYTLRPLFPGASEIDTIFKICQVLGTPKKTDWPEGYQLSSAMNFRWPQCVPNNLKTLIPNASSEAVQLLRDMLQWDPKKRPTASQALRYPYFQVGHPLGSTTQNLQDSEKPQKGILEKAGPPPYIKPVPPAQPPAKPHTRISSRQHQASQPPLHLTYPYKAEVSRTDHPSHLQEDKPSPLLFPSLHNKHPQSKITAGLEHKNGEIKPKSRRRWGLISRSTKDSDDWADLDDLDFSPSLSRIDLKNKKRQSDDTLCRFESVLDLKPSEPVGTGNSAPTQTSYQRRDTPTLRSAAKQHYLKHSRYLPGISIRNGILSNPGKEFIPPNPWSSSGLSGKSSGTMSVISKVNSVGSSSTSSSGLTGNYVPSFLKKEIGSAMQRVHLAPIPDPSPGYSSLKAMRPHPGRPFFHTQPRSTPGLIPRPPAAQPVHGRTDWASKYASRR
Sequence of various kinases (Homo sapiens, UniProt P36894) (P36894 24-532): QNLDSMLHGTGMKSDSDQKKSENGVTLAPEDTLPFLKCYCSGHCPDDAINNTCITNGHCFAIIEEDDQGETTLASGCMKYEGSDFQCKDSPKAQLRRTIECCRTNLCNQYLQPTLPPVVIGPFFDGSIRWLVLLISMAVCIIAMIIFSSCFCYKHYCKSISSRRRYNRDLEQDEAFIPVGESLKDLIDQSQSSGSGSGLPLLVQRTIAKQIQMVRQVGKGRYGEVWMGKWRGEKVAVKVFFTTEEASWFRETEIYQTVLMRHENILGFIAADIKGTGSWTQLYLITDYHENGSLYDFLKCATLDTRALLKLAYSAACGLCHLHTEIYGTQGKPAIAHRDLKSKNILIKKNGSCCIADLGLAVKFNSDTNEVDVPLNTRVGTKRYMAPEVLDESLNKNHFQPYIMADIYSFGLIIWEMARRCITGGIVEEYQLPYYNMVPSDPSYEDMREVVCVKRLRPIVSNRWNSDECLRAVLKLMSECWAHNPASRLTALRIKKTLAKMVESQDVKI
Sequence of various kinases (Homo sapiens, UniProt P45983) (P45983 whole entry): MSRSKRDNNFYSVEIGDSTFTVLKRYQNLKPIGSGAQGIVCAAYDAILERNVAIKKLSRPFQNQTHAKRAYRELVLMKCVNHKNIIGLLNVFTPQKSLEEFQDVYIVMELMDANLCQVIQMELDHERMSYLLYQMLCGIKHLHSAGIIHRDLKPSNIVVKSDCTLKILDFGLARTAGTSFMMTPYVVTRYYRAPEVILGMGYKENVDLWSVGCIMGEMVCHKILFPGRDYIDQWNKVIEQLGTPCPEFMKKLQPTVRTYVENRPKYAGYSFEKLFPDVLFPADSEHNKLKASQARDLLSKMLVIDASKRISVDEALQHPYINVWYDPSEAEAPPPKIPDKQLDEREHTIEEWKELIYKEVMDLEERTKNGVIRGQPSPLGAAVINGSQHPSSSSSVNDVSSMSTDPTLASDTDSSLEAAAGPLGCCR
Sequence of various kinases (Homo sapiens, UniProt P15056, V600E) (P15056 whole entry V600E): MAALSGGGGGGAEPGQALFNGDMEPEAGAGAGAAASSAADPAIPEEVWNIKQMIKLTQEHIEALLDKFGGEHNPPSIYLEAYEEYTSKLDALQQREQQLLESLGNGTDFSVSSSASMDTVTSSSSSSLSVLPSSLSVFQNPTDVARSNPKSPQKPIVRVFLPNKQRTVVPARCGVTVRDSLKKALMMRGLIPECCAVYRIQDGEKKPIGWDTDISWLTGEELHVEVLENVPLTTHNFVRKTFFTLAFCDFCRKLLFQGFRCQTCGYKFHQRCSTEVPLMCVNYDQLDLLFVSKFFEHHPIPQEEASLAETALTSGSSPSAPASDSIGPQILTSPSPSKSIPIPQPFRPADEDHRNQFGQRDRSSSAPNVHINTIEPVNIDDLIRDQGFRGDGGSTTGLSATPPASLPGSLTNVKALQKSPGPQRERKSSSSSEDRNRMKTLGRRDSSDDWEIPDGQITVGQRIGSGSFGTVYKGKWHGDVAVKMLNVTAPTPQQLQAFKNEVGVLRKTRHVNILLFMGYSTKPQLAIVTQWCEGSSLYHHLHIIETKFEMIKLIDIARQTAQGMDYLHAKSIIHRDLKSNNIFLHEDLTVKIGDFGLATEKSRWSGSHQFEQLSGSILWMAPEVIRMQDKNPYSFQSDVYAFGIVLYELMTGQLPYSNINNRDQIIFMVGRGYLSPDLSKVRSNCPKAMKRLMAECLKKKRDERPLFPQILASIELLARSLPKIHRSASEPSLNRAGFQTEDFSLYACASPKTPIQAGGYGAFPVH
Sequence of various kinases (Homo sapiens, UniProt Q92630) (Q92630 whole entry): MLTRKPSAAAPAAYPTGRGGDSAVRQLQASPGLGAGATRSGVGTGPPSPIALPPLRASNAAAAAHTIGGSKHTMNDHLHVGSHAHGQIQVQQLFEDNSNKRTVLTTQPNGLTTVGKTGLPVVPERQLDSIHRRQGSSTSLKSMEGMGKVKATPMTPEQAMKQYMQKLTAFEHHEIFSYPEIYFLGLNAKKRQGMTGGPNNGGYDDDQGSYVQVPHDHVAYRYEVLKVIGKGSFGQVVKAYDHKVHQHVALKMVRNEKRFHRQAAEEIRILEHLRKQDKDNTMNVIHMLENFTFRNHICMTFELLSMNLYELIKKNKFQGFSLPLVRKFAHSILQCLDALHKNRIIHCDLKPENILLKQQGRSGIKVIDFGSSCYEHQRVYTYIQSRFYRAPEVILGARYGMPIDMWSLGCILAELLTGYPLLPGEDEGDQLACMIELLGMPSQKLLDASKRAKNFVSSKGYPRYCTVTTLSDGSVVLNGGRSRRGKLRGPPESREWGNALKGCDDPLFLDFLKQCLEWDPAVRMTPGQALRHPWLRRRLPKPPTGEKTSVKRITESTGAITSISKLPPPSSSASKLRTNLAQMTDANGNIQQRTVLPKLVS

COc1ccc2c(c1)[C@]1(C[C@H]1c1ccc3c(/C=C/c4ccc(CN5C[C@@H](C)O[C@@H](C)C5)cc4)n[nH]c3c1)C(=O)N2 [CFI-400945]
% Inhibition Average (various kinases [1]): 50% | % Inhibition Duplicate #1 (various kinases [1]): 48% | % Inhibition Duplicate #2 (various kinases [1]): 51% | % Inhibition (various kinases [2]): -4% and 3% | % Inhibition (various kinases [3]): 8% and 5% | % Inhibition (various kinases [4]): 44% and 48% | % Inhibition (various kinases [5]): 1% and -2% | % Inhibition Average (various kinases [6]): 6% | % Inhibition Duplicate #1 (various kinases [6]): 4% | % Inhibition Duplicate #2 (various kinases [6]): 7% | % Inhibition (various kinases [7]): -6% and 0% | % Inhibition (various kinases [8]; AMPK (A2/B2/G1)): 14% and 19% | % Inhibition (various kinases [8]; AMPK (A2/B2/G2)): 14% and 12% | % Inhibition (various kinases [9]; CDK9 (Inactive)): 13% and 12% | % Inhibition (various kinases [9]; CDK9/cyclin K): -3% and -6% | % Inhibition (various kinases [10]): 1% and 10% | % Inhibition Average (various kinases [11]): 6% | % Inhibition Duplicate #1 (various kinases [11]): 2% | % Inhibition Duplicate #2 (various kinases [11]): 11% | % Inhibition (various kinases [12]): 9% and 6% | % Inhibition (various kinases [13]): 8% | % Inhibition (various kinases [14]): 9% and 7% | % Inhibition (various kinases [15]): 0% and -1% | % Inhibition (various kinases [16]): -1% and -4%
